Laboratory results taken from US20240116985A1, “STAPLED PEPTIDES AND METHODS THEREOF” (priority 2020, published 2024).
Where two headings read alike, the source gives them in different places.

Tests used:
[1] = molecular target: T1, full-length beta-Catenin (Uniprot ID P35222) (Homo sapiens, UniProt P35222); assay: Fluorescence polarization IC50 (beta-catenin / 5FAM-TCF4 10-53 competition); type: binding; details: read-out: beta-Catenin FP IC50
T1 construct: 10 nM full-length beta-Catenin (Uniprot ID P35222)
T1 sequence (P35222 1-781): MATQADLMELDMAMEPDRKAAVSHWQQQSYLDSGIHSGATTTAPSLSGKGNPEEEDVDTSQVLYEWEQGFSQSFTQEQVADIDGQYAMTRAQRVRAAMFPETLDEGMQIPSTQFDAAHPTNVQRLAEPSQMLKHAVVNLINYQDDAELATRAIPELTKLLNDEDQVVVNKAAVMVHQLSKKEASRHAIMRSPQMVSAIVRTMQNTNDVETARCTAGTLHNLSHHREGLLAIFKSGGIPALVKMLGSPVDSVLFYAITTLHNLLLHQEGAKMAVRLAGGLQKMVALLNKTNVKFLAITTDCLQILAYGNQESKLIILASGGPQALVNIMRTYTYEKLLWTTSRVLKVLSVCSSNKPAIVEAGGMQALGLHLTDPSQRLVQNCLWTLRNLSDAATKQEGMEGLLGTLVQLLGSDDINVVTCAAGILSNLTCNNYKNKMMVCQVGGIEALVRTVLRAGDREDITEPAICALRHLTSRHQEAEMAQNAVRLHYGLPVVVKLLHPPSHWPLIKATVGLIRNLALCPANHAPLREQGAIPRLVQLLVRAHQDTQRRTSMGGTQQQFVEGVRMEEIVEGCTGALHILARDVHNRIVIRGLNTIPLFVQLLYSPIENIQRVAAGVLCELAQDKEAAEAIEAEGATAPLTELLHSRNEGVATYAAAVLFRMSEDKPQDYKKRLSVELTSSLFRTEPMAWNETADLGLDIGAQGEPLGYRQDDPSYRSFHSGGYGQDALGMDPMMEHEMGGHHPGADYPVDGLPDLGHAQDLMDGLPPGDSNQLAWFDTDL

[2] = molecular target: T2, beta-catenin/TCF4 engagement (Homo sapiens, UniProt P35222); assay: Nano-BRET target engagement assay (B-cat-Halo & TCF4-Luc in HEK293 cells); type: cell-based; details: read-out: NanoBRET Abs IC50
T2 construct: expressed in transfected cells; host or cells: HEK293
T2 sequence (P35222 1-781): T1 sequence (P35222 1-781)

[3] = test system: TCF/LEF luciferase Reporter in DLD1 cells; assay: TCF reporter assay (DLD1 TCF/LEF luciferase reporter, Bright-Glo); type: cell-based
How it was run: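 Readouts: Bright-Glo luciferase for reporter signal and CellTiter-Glo for cell viability, with absolute IC50 derived. The reporter clone came from lentiviral TCF/LEF-luciferase transduction of DLD1 cells, seeded 5000 cells/well in RPMI with 4% FBS and exposed overnight to serially diluted compounds.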

[4] = absolute IC50, read-out: DLD1 reporter assay Abs IC50
[5] = read-out: DLD1 4% Abs IC50, DLD1 reporter, 4%, absolute IC50
[6] = read-out: DLD1 4% Abs IC50, DLD1 4%

Structure (SMILES)	IC50 ([1]; fluorescence polarization) [nM]	IC50 ([2]; absolute IC50) [nM]	IC50 [3, 4] [nM]	IC50 [3, 5] [nM]	IC50 [1] [nM]	IC50 [2] [nM]	IC50 [3, 6] [nM]	IC50 ([3]; read-out: DLD1 4% Abs IC50, DLD1 reporter assay, 4%, absolute IC50) [nM]
CC(=O)N1CCC[C@]12CC=CCCCC1(CCCC=CCCCOC(=O)N3CC[C@@](C(=O)N[C@@H](Cc4ccccc4C(F)(F)F)C(=O)N[C@@H](Cc4csc5ccccc45)C(=O)N[C@@H](CCC(N)=O)C(=O)N[C@@H](CC(C)C)C(=O)NC(C)(C)C(N)=O)(C3)NC(=O)[C@H](CC(C)C)NC(=O)[C@H](Cc3ccccc3)NC(=O)[C@H](C)NC(=O)[C@H](C)NC(=O)[C@H](Cc3cccc(C(=O)O)c3)NC(=O)[C@H](CC(=O)O)NC1=O)NC(=O)[C@H](CC(C)(C)C)NC(=O)[C@H](CC(=O)O)NC2=O (stereo partly drawn) [I-2386, Ac-PL3-Asp-Npg-B5-Asp-3COOHF-Ala-Ala-Phe-Leu-PyrS2-2F3MeF-BztA-Gln-Leu-Aib-NH2]	75.5	2800		700				
CC(=O)N1CCC[C@]12CC=CCCCC1(CCCC=CCCCOC(=O)N3CC[C@@](C(=O)N[C@@H](Cc4ccsc4)C(=O)N[C@@H](Cc4csc5ccccc45)C(=O)N[C@@H](CCC(N)=O)C(=O)O)(C3)NC(=O)[C@H](CC(N)=O)NC(=O)[C@H](Cc3ccccc3)NC(=O)[C@H](C)NC(=O)[C@H](C)NC(=O)[C@H](CN(CC(=O)O)CC(F)(F)F)NC(=O)[C@H](CC(=O)O)NC1=O)NC(=O)[C@H](CC(C)(C)C)NC(=O)[C@H](CC(=O)O)NC2=O (stereo partly drawn) [I-1026, Ac-PL3-Asp-Npg-B5-Asp-TfeGA-Ala-Ala-Phe-Asn-PyrS2-3Thi-BztA-Gln-OH]		16700	> 20000		5			
CC[C@H](C)[C@H](NC(=O)[C@H](CC(C)C)NC(=O)[C@H](CCC(N)=O)NC(=O)[C@H](Cc1csc2ccccc12)NC(=O)[C@H](Cc1ccccc1C(F)(F)F)NC(=O)[C@]12CCN(C1)C(=O)OCCCC=CCCCC1(CCCC=CC[C@]3(CCCN3C(C)=O)C(=O)N[C@@H](CC(=O)O)C(=O)N[C@@H](CC(C)(C)C)C(=O)N1)C(=O)N[C@@H](CC(=O)O)C(=O)N[C@@H](Cc1cccc(C(=O)O)c1)C(=O)N[C@@H](C)C(=O)N[C@@H](C)C(=O)N[C@@H](Cc1ccccc1)C(=O)N[C@@H](CC(C)C)C(=O)N2)C(N)=O (stereo partly drawn) [I-2385, Ac-PL3-Asp-Npg-B5-Asp-3COOHF-Ala-Ala-Phe-Leu-PyrS2-2F3MeF-BztA-Gln-Leu-Ile-NH2]	563	4000		1800				
CC(=O)N1CCC[C@]12CC=CCCCC1(CCCC=CCCCOC(=O)N3CC[C@@](C(=O)N[C@@H](Cc4ccccc4C(F)(F)F)C(=O)N[C@@H](Cc4csc5ccccc45)C(=O)N[C@@H](CCC(N)=O)C(=O)N[C@@H](Cc4ccccc4)C(=O)N[C@@H](C)C(N)=O)(C3)NC(=O)[C@H](CC(C)C)NC(=O)[C@H](Cc3ccccc3)NC(=O)[C@H](C)NC(=O)[C@H](C)NC(=O)[C@H](Cc3cccc(C(=O)O)c3)NC(=O)[C@H](CC(=O)O)NC1=O)NC(=O)[C@H](CC(C)(C)C)NC(=O)[C@H](CC(=O)O)NC2=O (stereo partly drawn) [I-2400, Ac-PL3-Asp-Npg-B5-Asp-3COOHF-Ala-Ala-Phe-Leu-PyrS2-2F3MeF-BztA-Gln-Phe-Ala-NH2]	142	2500		800				
CC(=O)N1CCC[C@]12CC=CCCCC1(CCCC=CCCCOC(=O)N3CC[C@@](C(=O)N[C@@H](Cc4ccsc4)C(=O)N[C@@H](Cc4csc5ccccc45)C(=O)N[C@@H](CCS(C)(=O)=O)C(N)=O)(C3)NC(=O)[C@H](CC(C)C)NC(=O)[C@H](Cc3ccccc3)NC(=O)[C@H](C)NC(=O)[C@H](C)NC(=O)[C@H](Cc3cccc(C(=O)O)c3)NC(=O)[C@H](CC(=O)O)NC1=O)NC(=O)[C@H](CC(C)(C)C)NC(=O)[C@H](CC(=O)O)NC2=O (stereo partly drawn) [I-2061, Ac-PL3-Asp-Npg-B5-Asp-3COOHF-Ala-Ala-Phe-Leu-PyrS2-3Thi-BztA-Met2O-NH2]	13					1900	1800	
CC(=O)N1CCC[C@]12CC=CCCCC1(CCCC=CCCCOC(=O)N3CC[C@@](C(=O)N[C@@H](Cc4ccsc4)C(=O)N[C@@H](Cc4csc5ccccc45)C(=O)N[C@@H](CC(N)=O)C(=O)N[C@@H](C)C(=O)N[C@@H](C)C(=O)N[C@H](C)C(N)=O)(C3)NC(=O)[C@H](CC(C)C)NC(=O)[C@H](Cc3ccccc3)NC(=O)[C@H](C)NC(=O)[C@H](C)NC(=O)[C@H](Cc3cccc(C(=O)O)c3)NC(=O)[C@H](CC(=O)O)NC1=O)NC(=O)[C@H](CC(C)(C)C)NC(=O)[C@H](CC(=O)O)NC2=O (stereo partly drawn) [I-2047, Ac-PL3-Asp-Npg-B5-Asp-3COOHF-Ala-Ala-Phe-Leu-PyrS2-3Thi-BztA-Asn-Ala-Ala-dAla-NH2]	11					2600	1300	
CC(=O)N1CCC[C@]12CC=CCCCC1(CCCC=CCCCOC(=O)N3CC[C@@](C(=O)N[C@@H](Cc4ccsc4)C(=O)N[C@@H](Cc4csc5ccccc45)C(=O)N[C@H](CO)[C@@H](C)O)(C3)NC(=O)[C@H](CC(C)C)NC(=O)[C@H](Cc3ccccc3)NC(=O)[C@H](C)NC(=O)[C@H](C)NC(=O)[C@H](Cc3ccccc3C(=O)O)NC(=O)[C@H](CC(=O)O)NC1=O)NC(=O)[C@H](CC(C)(C)C)NC(=O)[C@H](CC(=O)O)NC2=O (single isomer, unassigned) [I-1671, Ac-PL3-Asp-Npg-B5-Asp-2COOHF-Ala-Ala-Phe-Leu-PyrS2-3Thi-BztA-Thro1]	28	8000						1700

The next lines start with results.

IC50 ([1]; fluorescence polarization) [nM]	IC50 ([2]; absolute IC50) [nM]	IC50 [3, 4] [nM]	IC50 [3, 5] [nM]	IC50 [1] [nM]	IC50 [2] [nM]	IC50 [3, 6] [nM]	Structure (SMILES)	IC50 ([3]; read-out: DLD1 4% Abs IC50, DLD1 reporter assay, 4%, absolute IC50) [nM]
9	12200	7300	4100				CC(=O)N1CCC[C@]12CC=CCCCC1(CCCC=CCCCOC(=O)N3CC[C@@](C(=O)N[C@@H](Cc4ccccc4Cl)C(=O)N[C@@H](Cc4csc5ccccc45)C(=O)N[C@H](CO)[C@@H](C)O)(C3)NC(=O)[C@H]([C@@H](C)O)NC(=O)[C@H](Cc3ccccc3)NC(=O)[C@H](C)NC(=O)[C@H](C)NC(=O)[C@H](CC(=O)O)NC(=O)[C@H](CC(=O)O)NC1=O)NC(=O)[C@H](CC(C)(C)C)NC(=O)[C@H](CC(=O)O)NC2=O (stereo partly drawn) [I-1245, Ac-PL3-Asp-Npg-B5-Asp-Asp-Ala-Ala-Phe-Thr-PyrS2-2C1F-BztA-Thro1]	
5	4600		1100				CC(=O)N1CCC[C@]12CC=CCCCC1(CCCC=CCCCOC(=O)N3CC[C@@](C(=O)N[C@@H](Cc4ccccc4C(F)(F)F)C(=O)N[C@@H](Cc4csc5ccccc45)C(=O)N[C@@H](CCC(N)=O)C(=O)N[C@@H](CC(C)C)C(=O)N[C@@H](CO)C(N)=O)(C3)NC(=O)[C@H](CC(C)C)NC(=O)[C@H](Cc3ccccc3)NC(=O)[C@H](C)NC(=O)[C@H](C)NC(=O)[C@H](Cc3cccc(C(=O)O)c3)NC(=O)[C@H](CC(=O)O)NC1=O)NC(=O)[C@H](CC(C)(C)C)NC(=O)[C@H](CC(=O)O)NC2=O (stereo partly drawn) [I-2384, Ac-PL3-Asp-Npg-B5-Asp-3COOHF-Ala-Ala-Phe-Leu-PyrS2-2F3MeF-BztA-Gln-Leu-Ser-NH2]	
10	3700		1700				CC(=O)N1CCC[C@]12CC=CCCCC1(CCCC=CCCCOC(=O)N3CC[C@@](C(=O)N[C@@H](Cc4ccsc4)C(=O)N[C@@H](Cc4csc5ccccc45)C(=O)N[C@@H](CCC(N)=O)C(N)=O)(C3)NC(=O)[C@H](CC(C)C)NC(=O)[C@H](Cc3ccccc3)NC(=O)[C@H](C)NC(=O)[C@H](C)NC(=O)[C@H](CN(CC(=O)O)CC(F)(F)F)NC(=O)[C@H](CC(=O)O)NC1=O)NC(=O)[C@H](CC(C)(C)C)NC(=O)[C@H](CC(=O)O)NC2=O (stereo partly drawn) [I-1461, Ac-PL3-Asp-Npg-B5-Asp-TfeGA-Ala-Ala-Phe-Leu-PyrS2-3Thi-BztA-Gln-NH2]	
5					4000	6500	CC(=O)N1CCC[C@]12CC=CCCCC1(CCCC=CCCCOC(=O)N3CC[C@@](C(=O)N[C@@H](Cc4ccsc4)C(=O)N[C@@H](Cc4csc5ccccc45)C(=O)N[C@@H](C)C(N)=O)(C3)NC(=O)[C@H](CC(C)C)NC(=O)[C@H](Cc3ccccc3)NC(=O)[C@H](C)NC(=O)[C@H](CCC(N)=O)NC(=O)[C@H](Cc3cccc(C(=O)O)c3)NC(=O)[C@H](CC(=O)O)NC1=O)NC(=O)[C@H](CC(C)(C)C)NC(=O)[C@H](CC(=O)O)NC2=O (stereo partly drawn) [I-1918, Ac-PL3-Asp-Npg-B5-Asp-3COOHF-Gln-Ala-Phe-Leu-PyrS2-3Thi-BztA-Ala-NH2]	
